Here are results for one compound from publication PMC4667193 (Scientific Reports, 2015).

For one experiment, the system named is caspase-3. Also on record: method as in PMID 22523227. The note with it: hippocampal neurons, 6 hours of exposure; cited from earlier work.
For the next experiment, the target named is T1, Rat M1 mAChR (Rattus norvegicus, UniProt P08482).
T1 construct: host or cells: CHO (CHO-K1) cells
T1 sequence (P08482 1-460): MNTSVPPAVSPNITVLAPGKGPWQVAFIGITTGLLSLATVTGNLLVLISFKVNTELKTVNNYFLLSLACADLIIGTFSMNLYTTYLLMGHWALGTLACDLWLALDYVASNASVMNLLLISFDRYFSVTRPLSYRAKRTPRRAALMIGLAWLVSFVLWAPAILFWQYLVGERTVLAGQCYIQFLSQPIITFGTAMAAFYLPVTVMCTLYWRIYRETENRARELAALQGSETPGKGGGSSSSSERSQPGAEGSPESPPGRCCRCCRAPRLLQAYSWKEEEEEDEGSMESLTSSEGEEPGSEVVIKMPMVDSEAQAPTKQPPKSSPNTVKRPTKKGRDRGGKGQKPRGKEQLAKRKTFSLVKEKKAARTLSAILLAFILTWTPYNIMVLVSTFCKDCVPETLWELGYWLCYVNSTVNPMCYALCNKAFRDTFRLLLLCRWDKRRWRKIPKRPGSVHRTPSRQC
Description: calcium mobilization assay in CHO cells. It counts as cell-based. The protocol:
(§1) CHO cells expressing rM1, rM3 and rM5 were plated at 4 × 10^4 cells per well, whereas rM2 and rM4 were plated at 6 × 10^4 cells per well, in standard growth media (as described previously under “cell culture”) in 96-well plates 24 hours before assay and were incubated overnight at 37 °C in 5% CO2. […] Cells were incubated for 45 minutes (37 °C, 5% CO2) for dye loading. Fluo4-AM dye was removed, cells were washed and replaced with 40 μL of calcium assay buffer. AEME concentration-response curves were determined in single-add experiments. […] All compounds were dissolved in dimethyl sulfoxide (DMSO) and then in calcium assay buffer to obtain a final DMSO concentration of 0.3%. […] These values were fit using GraphPad Prism version 5.0 to determine EC50 values and Schild slope and pA2 in the Schild analyses.
A general note: Calcium assays in cells follow changes in intracellular calcium, usually with a dye or a luminescent sensor.

A further experiment concerns the target T2, Rat M3 mAChR (Rattus norvegicus, UniProt P08483).
T2 construct: host or cells: CHO (CHO-K1) cells
The experiment in a line: calcium mobilization assay in CHO cells. Format: cell-based. The protocol: as §1

For experiment [1], the system named is rat primary hippocampal cell culture. Description: intracellular calcium release in hippocampal cells (Fluo4-AM). It counts as cell-based. The note with it: 10^−5, 10^−4 and 10^−3 M AEME. The method, then:
Hippocampal cells were removed from the plates and previously incubated with Fluo4-AM dye (Invitrogen) dissolved in Neurobasal medium (Gibco®) for one hour[46]. The cells were centrifuged (300 g for 5 minutes at 20 °C), washed with phosphate buffer solution (PBS) without calcium, and plated in microscopy confocal (Zeiss LSM 510, Meta) microplates pretreated with poli-L-lysine. The fluorescence was measured for 90 seconds in the absence and/or in the presence of 10^−5, 10^−4 and 10^−3 M AEME. After this period, 250 mM KCl was added in order to promote neuronal […] and, thus, verify its viability. All measurements were performed with a PBS free-calcium solution. Digitalized images were analyzed through the software Origin 5.

Experiment [2] deals with muscarinic cholinergic receptors. Conditions: [^3H]QNB, rat hippocampus; cited from earlier work.
In the next experiment the target is T3, Rat M2 mAChR (Rattus norvegicus, UniProt P10980).
T3 construct: host or cells: CHO (CHO-K1) cells
T3 sequence (P10980 1-466): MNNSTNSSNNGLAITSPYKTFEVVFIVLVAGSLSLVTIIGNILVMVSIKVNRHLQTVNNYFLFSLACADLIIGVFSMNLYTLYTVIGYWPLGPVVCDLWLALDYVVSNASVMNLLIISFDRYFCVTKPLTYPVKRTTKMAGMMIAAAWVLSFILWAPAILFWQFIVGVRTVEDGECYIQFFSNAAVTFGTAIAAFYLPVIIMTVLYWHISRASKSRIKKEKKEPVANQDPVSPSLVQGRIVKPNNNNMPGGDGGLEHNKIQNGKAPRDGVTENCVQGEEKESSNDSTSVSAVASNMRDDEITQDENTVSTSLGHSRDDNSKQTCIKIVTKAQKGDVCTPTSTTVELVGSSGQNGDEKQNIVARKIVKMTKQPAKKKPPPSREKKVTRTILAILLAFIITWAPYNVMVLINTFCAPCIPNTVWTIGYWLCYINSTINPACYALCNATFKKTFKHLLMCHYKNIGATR
The experiment in a line: calcium mobilization assay in CHO cells (Gqi5). It counts as cell-based. Conditions: rat M2, 100 μM AEME on ACh curve. The method, then: (§2) Chinese hamster ovary (CHO) cells individually and stably expressing individual rat mAChRs (rM1 to rM5 mAChRs) were purchased from the American Type Culture Collection (ATCC) and cultured according to ATCC recommendations. To generate stable rM2 and rM4 cell lines for use in calcium mobilization assays, rM2 and rM4-expressing cells were stably transfected with a chimeric G protein (Gqi5) using Lipofectamine 2000 (Invitrogen). rM2 and rM4 cells were grown in Ham’s F-12 medium containing 10% heat-inactivated fetal bovine serum (FBS), 2 mM GlutaMAX (Gibco®), 20 mM HEPES, 500 μg/mL G418 sulfate, 200 μg/mL hygromycin B and an antibiotic-antimycotic solution (Gibco®). rM1, rM3 and rM5 mAChR-CHO cells were grown in the same medium without hygromycin B[48]. CHO cells were cultured in a 150 mm-diameter cell culture-treated dishes (Corning®) at 37 °C and 5% CO2 until complete confluence.
(§3) CHO cells expressing rM1, rM3 and rM5 were plated at 4 × 10^4 cells per well, whereas rM2 and rM4 were plated at 6 × 10^4 cells per well, in standard growth media (as described previously under “cell culture”) in 96-well plates 24 hours before assay and were incubated overnight at 37 °C in 5% CO2. […] Cells were incubated for 45 minutes (37 °C, 5% CO2) for dye loading. […] AEME concentration-response curves were determined in single-add experiments. […]

The target in another experiment is T4, Rat M4 mAChR (Rattus norvegicus, UniProt P08485).
T4 construct: host or cells: CHO (CHO-K1) cells
T4 sequence (P08485 1-478): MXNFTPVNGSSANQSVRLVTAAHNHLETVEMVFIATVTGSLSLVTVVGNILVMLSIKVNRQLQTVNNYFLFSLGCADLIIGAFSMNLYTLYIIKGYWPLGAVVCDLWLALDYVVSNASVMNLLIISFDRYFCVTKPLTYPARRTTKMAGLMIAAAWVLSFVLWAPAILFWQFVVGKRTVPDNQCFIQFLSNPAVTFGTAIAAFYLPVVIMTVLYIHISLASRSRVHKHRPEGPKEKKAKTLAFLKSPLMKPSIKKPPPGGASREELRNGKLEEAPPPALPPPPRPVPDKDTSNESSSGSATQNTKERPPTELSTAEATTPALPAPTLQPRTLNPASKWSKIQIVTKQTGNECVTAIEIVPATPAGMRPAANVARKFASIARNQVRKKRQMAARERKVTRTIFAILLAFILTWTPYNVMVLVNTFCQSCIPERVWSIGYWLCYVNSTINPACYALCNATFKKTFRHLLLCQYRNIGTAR
Description: calcium mobilization assay in CHO cells (Gqi5). It counts as cell-based. The note with it: rat M4, 100 μM AEME on ACh curve. The method, then:
as §2, §3

A value given as a limit tells only on which side of the number the result lay.

T2 sequence (P08483 whole entry): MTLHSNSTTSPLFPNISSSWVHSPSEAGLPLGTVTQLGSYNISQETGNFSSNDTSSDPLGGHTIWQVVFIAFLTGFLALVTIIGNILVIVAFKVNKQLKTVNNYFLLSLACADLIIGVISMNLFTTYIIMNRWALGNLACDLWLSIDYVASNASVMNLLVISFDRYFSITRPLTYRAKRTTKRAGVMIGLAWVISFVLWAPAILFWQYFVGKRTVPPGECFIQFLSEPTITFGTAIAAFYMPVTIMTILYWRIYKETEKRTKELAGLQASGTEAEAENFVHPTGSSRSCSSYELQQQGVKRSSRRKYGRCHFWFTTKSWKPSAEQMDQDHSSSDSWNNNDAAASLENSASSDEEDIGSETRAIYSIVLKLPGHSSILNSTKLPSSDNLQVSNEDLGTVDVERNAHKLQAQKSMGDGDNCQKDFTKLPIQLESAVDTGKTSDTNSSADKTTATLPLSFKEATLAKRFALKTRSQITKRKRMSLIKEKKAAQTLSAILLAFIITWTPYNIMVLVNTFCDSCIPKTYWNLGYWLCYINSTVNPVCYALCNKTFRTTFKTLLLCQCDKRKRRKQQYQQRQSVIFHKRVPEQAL

What is called EC50 is the midpoint of the concentration-response curve. As a reminder, the pKi is −log10 of the Ki, conventionally taken in molar units. As for `COC(=O)C1=CC[C@@H]2CC[C@H]1N2C` [AEME, anhydroecgonine methyl ester], the caspase-3 activity result in the experiment on caspase-3 is given as “increased”. Further, the mechanism of action result is “partial agonist-activity” on Rat M1 mAChR (rat M1), “partial agonist-activity” on Rat M3 mAChR (rat M3), “antagonized the effects of ACh” on Rat M2 mAChR and “antagonized the effects of ACh” on Rat M4 mAChR. For the same compound, the “% of the maximum acetylcholine response” value on Rat M1 mAChR (rat M1, agonist mode) came to 38.3%; at Rat M3 mAChR (rat M3, agonist mode) it was 27.2%. The 50% effective concentration (EC50) at Rat M1 mAChR (rat M1, agonist mode (single-add)) was above 100 µM; on Rat M3 mAChR (rat M3, agonist mode (single-add)), above 100 µM. The intracellular calcium release result in experiment [1] is “concentration-dependent increase”. In addition, the pKi in experiment [2] is listed as 4.15 ± 0.15.
